Test results taken from patent US20250144067A1, “PERSONALIZED STARVATION THERAPY FOR CANCER” (Faeth Therapeutics, Inc., priority 2021, published 2025).
Counter-ions that a name gives are not always drawn.

Legend:
[1] = system: NCI-H292 lung cancer cells; experiment: FDA drug screening, complete media vs cholesterol-free media with simvastatin (TABLE 2); format: cell-based, human; settings: for Cholesterol-free media + simvastatin (0.04 μM) / Complete Media: NCI-H292 cells
[2] = system: NCI-H292 lung cancer cells; experiment: FDA drug screening, complete media vs cholesterol-free media without statin (TABLE 1); format: cell-based, human
[3] = FDA drug library screen, cholesterol-free media with simvastatin 0.04 μM
[4] = FDA drug library screen, complete media
[5] = complete media minus cholesterol-free media + simvastatin, >0 enhanced anti-cancer activity, about 0 neutral, <0 antagonist
[6] = Complete minus Cholesterol-free, >0 enhanced anti-cancer activity, about 0 neutral, <0 antagonist
[7] = NCI-H292 cells, cholesterol-free media without statin, FDA drug library screen
[8] = NCI-H292 cells, complete media, FDA drug library screen
[9] = FDA library drug in cholesterol-free media with simvastatin 0.04 μM
[10] = FDA library drug in complete media
[11] = complete media vs cholesterol-free media + simvastatin (0.04 μM), >0 enhanced anti-cancer activity, about 0 neutral, <0 antagonist
[12] = NCI-H292 cells, cholesterol-free media without statin
[13] = complete media vs cholesterol-free media + simvastatin (0.04 μM), […]
[14] = Complete minus Cholesterol-free, […]
[15] = Complete minus Cholesterol-free, greater than 0 enhanced anti-cancer activity, about 0 neutral, below 0 antagonist
[16] = NCI-H292 cells, FDA drug library screen, cholesterol-free media without statin
[17] = NCI-H292 cells, FDA drug library screen, complete media
[18] = cholesterol-free media with simvastatin 0.04 μM, cell growth value in FDA drug screen
[19] = complete media, cell growth value in FDA drug screen
[20] = NCI-H292 cells in cholesterol-free media without statin
[21] = NCI-H292 cells in complete media
[22] = cholesterol-free media with simvastatin 0.04 μM, FDA drug library screen (TABLE 2)
[23] = complete media, FDA drug library screen (TABLE 2)
[24] = complete media minus cholesterol-free media + simvastatin (0.04 μM), >0 enhanced anti-cancer activity, about 0 neutral, <0 antagonist
[25] = complete vs cholesterol-free media, greater than 0 enhanced anti-cancer activity, about 0 neutral, below 0 antagonists

Structure (SMILES) | Cholesterol-free media + simvastatin (0.04 μM) [1, 3] | Complete Media [1, 4] | Difference [2, 6] | Cholesterol-free [2, 7] | Complete [2, 8] | Difference [1, 11] | Cholesterol-free [2, 12] | Complete ([2]; NCI-H292 cells, complete media) | also measured
Nc1c2ccccc2nc2ccccc12 [9-Aminoacridine] | 0.3257 | 0.5257 | −0.03 | 0.5968 | 0.5645 | – | – | – | Difference [1, 5]: 0.20
C=CCCCCCCCCC(=O)O [10-Undecenoic acid (zinc salt)] | – | – | −0.19 | – | – | −0.33 | 1.263 | 1.076 | Cholesterol-free media + simvastatin (0.04 μM) [1, 9]: 1.561; Complete Media [1, 10]: 1.235
C=CCCCCCCCCC(=O)O [10-Undecenoic acid] | – | – | 0.01 | 0.9796 | 0.99 | −0.30 | – | – | Cholesterol-free media + simvastatin (0.04 μM) [1, 9]: 1.07; Complete Media [1, 10]: 0.7648
CC(=O)[C@@]1(O)CC[C@H]2[C@@H]3CCC4=CC(=O)CC[C@]4(C)[C@H]3CC[C@@]21C [17-Hydroxyprogesterone] | 0.9953 | 0.8962 | – | 1.202 | 1.185 | – | – | – | Difference [1, 13]: −0.10; Difference [2, 14]: −0.02
CC1(C)[C@@H](O)CC[C@]2(C)[C@H]3C(=O)C=C4[C@@H]5C[C@@](C)(C(=O)O)CC[C@]5(C)CC[C@@]4(C)[C@]3(C)CC[C@@H]12 [18β-Glycyrrhetinic acid] | 0.8991 | 0.8018 | – | – | – | −0.10 | – | – | Difference [2, 15]: −0.09; Cholesterol-free [2, 16]: 1.192; Complete [2, 17]: 1.102
CC(C)=CCC[C@](C)(O)[C@H]1CC[C@]2(C)[C@@H]1[C@H](O)C[C@@H]1[C@@]3(C)CC[C@H](O[C@@H]4O[C@H](CO)[C@@H](O)[C@H](O)[C@H]4O[C@@H]4O[C@H](CO)[C@@H](O)[C@H](O)[C@H]4O)C(C)(C)[C@@H]3CC[C@]12C [20(S)-Ginsenoside Rg3] | – | – | – | – | – | – | 1.062 | 0.8564 | Cholesterol-free media + simvastatin (0.04 μM) [1, 9]: 1.721; Complete Media [1, 10]: 1.403; Difference [1, 13]: −0.32; Difference [2, 14]: −0.21
CC12CCC(CC1=O)C2(C)C (stereo not drawn) [(+)-Camphor] | – | – | – | 0.9458 | 1.19 | – | – | – | Cholesterol-free media + simvastatin (0.04 μM) [1, 18]: 0.9198; Complete Media [1, 19]: 1.05; Difference [1, 5]: 0.13; Difference ([2]; complete vs cholesterol-free media, >0 enhanced anti-cancer activity, about 0 neutral, <0 antagonist): 0.24
CC(=O)N1CCN(c2ccc(OC[C@H]3CO[C@](Cn4ccnc4)(c4ccc(Cl)cc4Cl)O3)cc2)CC1 [(+)-Ketoconazole] | 0.4743 | 0.9511 | −0.24 | – | – | – | 1.237 | 0.9934 | Difference [1, 5]: 0.48
CC(C)NC[C@@H](O)COc1ccc(CC(N)=O)cc1 [(R)-(+)-Atenolol] | – | – | 0.07 | 0.8467 | 0.9214 | −0.29 | – | – | Cholesterol-free media + simvastatin (0.04 μM) [1, 9]: 1.166; Complete Media [1, 10]: 0.872
NC[C@H](CC(=O)O)c1ccc(Cl)cc1 [(R)-Baclofen] | 0.9854 | 0.8585 | – | – | – | – | – | – | Difference [1, 13]: −0.13; Difference [2, 14]: −0.91; Cholesterol-free [2, 20]: 2.052; Complete [2, 21]: 1.14
COc1cccc(-c2c(C)n(Cc3c(F)cccc3C(F)(F)F)c(=O)n(C[C@H](NCCCC(=O)O)c3ccccc3)c2=O)c1F [(R)-Elagolix] | 1.16 | 1.077 | – | – | – | −0.08 | – | – | Difference ([2]; Complete minus Cholesterol-free, greater than 0 enhanced anti-cancer activity, about 0 neutral, below 0 antagonists): −0.49; Cholesterol-free [2, 20]: 1.394; Complete [2, 21]: 0.8996
Cc1c(OCC(F)(F)F)ccnc1C[S@@+]([O-])c1nc2ccccc2[nH]1 [(R)-Lansoprazole] | – | – | – | – | – | – | – | – | Cholesterol-free media + simvastatin (0.04 μM) [1, 22]: 1.431; Complete Media [1, 23]: 1.389; Difference [1, 24]: −0.04; Difference [2, 15]: −0.18; Cholesterol-free [2, 16]: 0.9835; Complete [2, 17]: 0.8054
N[C@H](CO)C(=O)O [(R)-Serine] | – | – | – | – | – | – | 1.718 | 1.345 | Cholesterol-free media + simvastatin (0.04 μM) [1, 18]: 0.9633; Complete Media [1, 19]: 1.052; Difference [1, 5]: 0.09; Difference [2, 25]: −0.37
COc1cc2nc(N3CCN(C(=O)[C@H]4CCCO4)CC3)nc(N)c2cc1OC [(R)-Terazosin] | – | – | – | – | – | – | 1.165 | 0.7551 | Cholesterol-free media + simvastatin (0.04 μM) [1, 22]: 0.9379; Complete Media [1, 23]: 0.9227; Difference [1, 24]: −0.02; Difference [2, 25]: −0.41
COc1ccc(CCN(C)CCC[C@](C#N)(c2ccc(OC)c(OC)c2)C(C)C)cc1OC.Cl [(R)-Verapamil (hydrochloride)] | 1.005 | 0.92 | – | 0.8697 | 0.8867 | – | – | – | Difference [1, 13]: −0.08; Difference [2, 14]: 0.02
